Assay results as given in patent publication US9440969B2, “Compounds and methods for kinase modulation, and indications therefor” (PLEXXIKON INC., priority 2009, dated 2016).

Key:
B-Raf = B-Raf (Homo sapiens, UniProt P15056); experiment: B-Raf kinase activity assay (AlphaScreen, biotin-MEK1 substrate); conditions: 100 μM ATP, 100 nM biotin-MEK1, 45 minutes at room temperature; read-out: Biochemical activity (IC50 μM) B-Raf
Method in brief: (§1)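 Each Raf enzyme (0.1 ng) phosphorylates 100 nM biotin-MEK1 in pH 7.0 HEPES with Mg2+/Mn2+, 100 μM ATP final, 45 min at room temperature. Phospho-MEK1/2 antibody with AlphaScreen beads is read after 3 h. IC50 comes from an 8-point dilution series.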

CYP1A2 = target: T1, CYP1A2 (Homo sapiens, UniProt P05177); experiment: CYP1A2 inhibition (fluorescent substrate CEC); format: in vitro ADME; conditions: read-out: Cyp IC50 (μM) 1A2
T1 sequence (P05177 1-516): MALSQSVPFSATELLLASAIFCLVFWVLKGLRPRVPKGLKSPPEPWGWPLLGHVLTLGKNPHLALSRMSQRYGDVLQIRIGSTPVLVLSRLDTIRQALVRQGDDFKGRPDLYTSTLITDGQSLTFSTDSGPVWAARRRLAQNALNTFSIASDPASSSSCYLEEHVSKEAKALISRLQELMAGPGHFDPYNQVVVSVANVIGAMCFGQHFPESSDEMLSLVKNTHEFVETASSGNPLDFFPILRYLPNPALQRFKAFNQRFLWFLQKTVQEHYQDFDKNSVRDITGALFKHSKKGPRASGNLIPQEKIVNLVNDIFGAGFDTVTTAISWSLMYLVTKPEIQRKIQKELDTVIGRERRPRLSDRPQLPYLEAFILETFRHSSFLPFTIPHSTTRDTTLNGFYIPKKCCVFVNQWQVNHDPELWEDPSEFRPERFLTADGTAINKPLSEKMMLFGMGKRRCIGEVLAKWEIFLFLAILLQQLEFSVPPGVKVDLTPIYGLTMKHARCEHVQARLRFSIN
Protocol: (§2) CYP (Cytochrome P450) enzymes are the major drug metabolizing enzymes present in the liver. The inhibition of CYP enzyme activity (IC50) for each of CYP1A2, CYP2C19, CYP2C9, CYP2D6, CYP3A4(BFC) and CYP3A4(BQ) is determined for compounds, where inhibition of metabolism of a known substrate leads to a decrease in the fluorescence of the metabolized product. The fluorescence of the product is monitored as a function of compound concentration. Compounds are dissolved in dimethyl sulfoxide to a concentration of 100 mM. These are diluted […], into 82 μL of acetonitrile. An 11 μL aliquot of this solution is then added to 204 μL of cofactor mix (1.3% NADPH Regeneration system Solution A, 1.04% NADPH Regeneration system Solution B from BD Biosciences, 5% acetonitrile and 0.05% dimethyl sulfoxide). These are then serially diluted 1:1 (160 μL to 160 μL co-factor mix) for a total of 10 points. A 10 μL aliquot of this final mixture is dispensed into 384 well assay plates and incubated for 10 minutes at 37° C. Enzyme and substrate mix (10 μL; 0.5 pmol CYP1A2/5 μM CEC; 1.0 pmol CYP2C9/75 μM MFC; 0.5 pmol CYP2C19/25 μM CEC; 1.5 pmol CYP2D6/1.5 μM AMMC; 1.0 pmol CYP3A4/50 μM BFC; or 1.0 pmol CYP3A4/40 μM BQ) is added to these assay plates. Assay plates are incubated at 37° C. (CYP1A2-15 min; CYP2C9-45 min; CYP2C19, 2D6 and 3A4-30 min) and read in a Tecan Safire 2 plate reader (CYP1A2, 2C19 and 3A4 409 ex/460 em; CYP2C9 and 2D6 409 ex/530 em). The signal versus compound concentration is used to determine the IC50. The enzymes and substrates for this assay are obtained from BD Biosciences.

c-Raf-1 = c-Raf-1 (Homo sapiens, UniProt P04049); experiment: c-Raf-1 kinase activity assay (AlphaScreen, biotin-MEK1 substrate); conditions: 100 μM ATP, 100 nM biotin-MEK1, 45 minutes at room temperature; read-out: Biochemical activity (IC50 μM) c-Raf-1
Chain of c-Raf-1 (P04049 whole entry Y340D/Y341D, form open): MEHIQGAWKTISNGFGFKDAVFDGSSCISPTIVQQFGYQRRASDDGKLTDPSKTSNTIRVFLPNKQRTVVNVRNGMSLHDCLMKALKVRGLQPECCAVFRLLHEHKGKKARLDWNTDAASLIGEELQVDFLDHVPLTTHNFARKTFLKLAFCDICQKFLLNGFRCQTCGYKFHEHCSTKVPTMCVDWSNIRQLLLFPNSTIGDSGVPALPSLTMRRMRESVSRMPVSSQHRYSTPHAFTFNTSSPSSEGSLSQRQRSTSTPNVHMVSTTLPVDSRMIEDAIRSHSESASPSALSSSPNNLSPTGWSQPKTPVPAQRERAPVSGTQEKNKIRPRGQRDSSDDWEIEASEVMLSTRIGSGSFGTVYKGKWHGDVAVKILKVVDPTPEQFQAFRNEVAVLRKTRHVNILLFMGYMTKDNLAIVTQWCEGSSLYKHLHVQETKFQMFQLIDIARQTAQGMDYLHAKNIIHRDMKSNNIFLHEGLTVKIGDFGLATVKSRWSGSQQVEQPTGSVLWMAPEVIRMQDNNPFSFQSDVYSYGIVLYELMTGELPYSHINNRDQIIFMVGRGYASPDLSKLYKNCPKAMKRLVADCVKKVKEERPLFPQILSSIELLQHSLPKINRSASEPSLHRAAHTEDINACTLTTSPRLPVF
Method in brief: as §1

CYP2C19 = CYP2C19 (Homo sapiens, UniProt P33261); experiment: CYP2C19 inhibition (fluorescent substrate CEC); format: in vitro ADME; conditions: read-out: Cyp IC50 (μM) 2C19
Chain of CYP2C19 (P33261 whole entry): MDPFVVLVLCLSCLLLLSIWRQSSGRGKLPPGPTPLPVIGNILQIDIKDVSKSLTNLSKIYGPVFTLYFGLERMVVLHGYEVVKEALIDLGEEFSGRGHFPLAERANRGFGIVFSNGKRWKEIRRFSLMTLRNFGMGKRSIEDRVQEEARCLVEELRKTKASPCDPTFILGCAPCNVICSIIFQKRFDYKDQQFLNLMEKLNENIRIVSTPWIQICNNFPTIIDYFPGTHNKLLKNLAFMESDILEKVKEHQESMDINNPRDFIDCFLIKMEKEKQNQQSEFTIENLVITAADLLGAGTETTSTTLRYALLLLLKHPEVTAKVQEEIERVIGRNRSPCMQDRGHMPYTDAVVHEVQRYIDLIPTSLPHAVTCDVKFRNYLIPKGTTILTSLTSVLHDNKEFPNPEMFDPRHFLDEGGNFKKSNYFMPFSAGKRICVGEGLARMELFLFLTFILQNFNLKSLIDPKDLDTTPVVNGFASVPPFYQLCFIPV
Protocol: as §2

CYP3A4(BFC) = CYP3A4(BFC) (Homo sapiens, UniProt P08684); experiment: CYP3A4 inhibition (substrate BFC); format: in vitro ADME; conditions: read-out: Cyp IC50 (μM) 3A4(BFC)
Chain of CYP3A4(BFC) (P08684 whole entry): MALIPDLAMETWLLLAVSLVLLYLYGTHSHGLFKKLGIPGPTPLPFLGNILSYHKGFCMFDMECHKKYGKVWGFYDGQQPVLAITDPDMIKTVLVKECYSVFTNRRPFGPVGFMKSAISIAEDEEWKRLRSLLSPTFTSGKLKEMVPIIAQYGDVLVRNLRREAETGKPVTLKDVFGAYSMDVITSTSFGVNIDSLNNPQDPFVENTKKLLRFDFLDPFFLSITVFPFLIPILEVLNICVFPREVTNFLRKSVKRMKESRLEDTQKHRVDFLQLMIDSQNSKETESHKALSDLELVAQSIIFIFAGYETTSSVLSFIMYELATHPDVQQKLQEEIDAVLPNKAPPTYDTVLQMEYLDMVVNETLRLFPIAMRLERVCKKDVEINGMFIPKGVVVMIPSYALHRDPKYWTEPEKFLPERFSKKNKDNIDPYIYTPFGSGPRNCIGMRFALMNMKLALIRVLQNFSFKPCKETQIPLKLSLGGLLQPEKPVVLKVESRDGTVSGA
Protocol: as §2

CYP2D6 = CYP2D6 (Homo sapiens, UniProt P10635); experiment: CYP2D6 inhibition (fluorescent substrate AMMC); format: in vitro ADME; conditions: read-out: Cyp IC50 (μM) 2D6
Chain of CYP2D6 (P10635 whole entry): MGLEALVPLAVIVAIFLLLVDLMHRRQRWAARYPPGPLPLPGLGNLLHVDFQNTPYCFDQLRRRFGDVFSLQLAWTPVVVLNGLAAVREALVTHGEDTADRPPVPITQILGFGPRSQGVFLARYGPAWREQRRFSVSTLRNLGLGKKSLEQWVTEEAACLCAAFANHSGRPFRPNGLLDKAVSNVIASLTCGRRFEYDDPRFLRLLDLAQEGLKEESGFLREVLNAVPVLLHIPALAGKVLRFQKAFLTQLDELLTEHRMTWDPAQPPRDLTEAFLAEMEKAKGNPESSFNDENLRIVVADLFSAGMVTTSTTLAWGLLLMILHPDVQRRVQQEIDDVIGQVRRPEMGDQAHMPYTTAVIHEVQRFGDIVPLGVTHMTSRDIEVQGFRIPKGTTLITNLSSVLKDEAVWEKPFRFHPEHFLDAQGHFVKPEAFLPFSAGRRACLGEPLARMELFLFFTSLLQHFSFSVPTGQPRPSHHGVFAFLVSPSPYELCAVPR
Protocol: as §2

Chain of B-Raf (P15056 whole entry): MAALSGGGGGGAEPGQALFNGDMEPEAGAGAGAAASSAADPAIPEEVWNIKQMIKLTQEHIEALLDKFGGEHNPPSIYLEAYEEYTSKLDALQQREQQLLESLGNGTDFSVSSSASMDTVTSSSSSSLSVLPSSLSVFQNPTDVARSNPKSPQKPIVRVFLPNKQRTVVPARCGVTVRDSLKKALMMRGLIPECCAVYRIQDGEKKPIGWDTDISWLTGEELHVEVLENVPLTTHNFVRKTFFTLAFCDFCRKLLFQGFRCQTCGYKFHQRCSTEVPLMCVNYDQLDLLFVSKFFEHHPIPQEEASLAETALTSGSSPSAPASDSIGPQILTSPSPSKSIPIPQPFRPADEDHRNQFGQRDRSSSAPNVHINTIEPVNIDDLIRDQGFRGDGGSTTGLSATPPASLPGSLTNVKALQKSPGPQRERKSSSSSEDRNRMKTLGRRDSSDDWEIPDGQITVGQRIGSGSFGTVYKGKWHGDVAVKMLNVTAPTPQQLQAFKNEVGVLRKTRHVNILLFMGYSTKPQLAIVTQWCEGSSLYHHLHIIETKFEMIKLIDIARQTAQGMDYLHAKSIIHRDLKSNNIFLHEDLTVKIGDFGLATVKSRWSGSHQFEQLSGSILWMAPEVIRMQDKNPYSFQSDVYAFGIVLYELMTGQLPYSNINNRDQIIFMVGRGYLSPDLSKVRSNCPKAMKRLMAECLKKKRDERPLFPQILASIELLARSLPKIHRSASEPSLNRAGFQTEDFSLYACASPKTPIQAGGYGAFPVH

SMILES | IC50 (B-Raf) | IC50 (CYP1A2) | IC50 (c-Raf-1) | IC50 (CYP2C19) | IC50 (CYP3A4(BFC)) | IC50 (CYP2D6)
CCCS(=O)(=O)Nc1ccc(F)c(C(=O)c2c[nH]c3ncc(-c4ccc5[nH]ncc5c4)cc23)c1F [P-0001, propane-1-sulfonic acid {2,4-difluoro-3-[5-(1H-indazol-5-yl)-1H-pyrrolo[2,3-b]pyridine-3-carbonyl]-phenyl}-amide] | < 0.1 µM | > 10 µM | < 0.1 µM | < 5 µM | > 10 µM | > 10 µM
CCCS(=O)(=O)Nc1ccc(F)c(C(=O)c2c[nH]c3ncc(-c4ccc5[nH]ccc5c4)cc23)c1F [P-0012, Propane-1-sulfonic acid {2,4-difluoro-3-[5-(1H-indol-5-yl)-1H-pyrrolo[2,3-b]pyridine-3-carbonyl]-phenyl}-amide] | < 0.1 µM | > 10 µM | < 0.1 µM | < 5 µM | 5 to 10 µM | > 10 µM
CCCS(=O)(=O)Nc1ccc(F)c(C(=O)c2c[nH]c3ncc(-c4cnn(C5CCNCC5)c4)cc23)c1F [P-1002, Propane-1-sulfonic acid {2,4-difluoro-3-[5-(1-piperidin-4-yl-1H-pyrazol-4-yl)-1H-pyrrolo[2,3-b]pyridine-3-carbonyl]-phenyl}-amide] | < 0.1 µM | > 10 µM | < 0.1 µM | > 10 µM | > 10 µM | > 10 µM
CCCS(=O)(=O)Nc1ccc(F)c(C(=O)c2c[nH]c3ncc(-c4ccc5[nH]cc(C)c5c4)cc23)c1F [P-0023, Propane-1-sulfonic acid {2,4-difluoro-3-[5-(3-methyl-1H-indol-5-yl)-1H-pyrrolo[2,3-b]pyridine-3-carbonyl]-phenyl}-amide] | < 0.1 µM | > 10 µM | < 0.1 µM | < 5 µM | > 10 µM | > 10 µM
CCCS(=O)(=O)Nc1ccc(F)c(C(=O)c2c[nH]c3ncc(-c4csc(-n5ccnc5C)n4)cc23)c1F [P-1101, Propane-1-sulfonic acid (2,4-difluoro-3-{5-[2-(2-methyl-imidazol-1-yl)-thiazol-4-yl]-1H-pyrrolo[2,3-b]pyridine-3-carbonyl}-phenyl)-amide] | < 0.1 µM | > 10 µM | < 0.1 µM | > 10 µM | > 10 µM | > 10 µM
CCCS(=O)(=O)Nc1ccc(F)c(C(=O)c2c[nH]c3ncc(-c4ccc5cncnc5c4)cc23)c1F [P-0025, Propane-1-sulfonic acid [2,4-difluoro-3-(5-quinazolin-7-yl-1H-pyrrolo[2,3-b]pyridine-3-carbonyl)-phenyl]-amide] | < 0.1 µM | > 10 µM | < 0.1 µM | > 10 µM | > 10 µM | > 10 µM

The remaining lines, values ahead:

IC50 (B-Raf) | IC50 (CYP1A2) | IC50 (c-Raf-1) | IC50 (CYP2C19) | IC50 (CYP3A4(BFC)) | IC50 (CYP2D6) | SMILES
< 0.1 µM | > 10 µM | < 0.1 µM | > 10 µM | > 10 µM | > 10 µM | Cc1ncc(-c2cnc3[nH]cc(C(=O)c4c(F)ccc(NS(=O)(=O)c5cc(F)ccc5F)c4F)c3c2)cn1 [P-1503, N-{2,4-Difluoro-3-[5-(2-methyl-pyrimidin-5-yl)-1H-pyrrolo[2,3-b]pyridine-3-carbonyl]-phenyl}-2,5-difluoro-benzenesulfonamide]
< 0.1 µM | > 10 µM | < 0.1 µM | > 10 µM | > 10 µM | > 10 µM | CCCS(=O)(=O)Nc1ccc(F)c(C(=O)c2c[nH]c3ncc(-c4ccc5c(cnn5S(C)(=O)=O)c4)cc23)c1F [P-0016, propane-1-sulfonic acid {2,4-difluoro-3-[5-(1-methanesulfonyl-1H-indazol-5-yl)-1H-pyrrolo[2,3-b]pyridine-3-carbonyl]-phenyl}-amide]
< 0.1 µM | > 10 µM | < 0.1 µM | > 10 µM | > 10 µM | > 10 µM | Cc1ccc(-c2cnc3[nH]cc(C(=O)c4c(F)ccc(NS(=O)(=O)c5cc(F)ccc5F)c4F)c3c2)cn1 [P-1408, N-{2,4-Difluoro-3-[5-(6-methyl-pyridin-3-yl)-1H-pyrrolo[2,3-b]pyridine-3-carbonyl]-phenyl}-2,5-difluoro-benzenesulfonamide]
< 0.1 µM | < 5 µM | ~0.1 µM | < 5 µM | > 10 µM | > 10 µM | CCCS(=O)(=O)Nc1ccc(F)c(C(=O)c2c[nH]c3ncc(-c4ccc5c(cnn5C(C)=O)c4)cc23)c1F [P-0007, propane-1-sulfonic acid {3-[5-(1-acetyl-1H-indazol-5-yl)-1H-pyrrolo[2,3-b]pyridine-3-carbonyl]-2,4-difluoro-phenyl}-amide]
< 0.1 µM | 5 to 10 µM | < 0.1 µM | 5 to 10 µM | > 10 µM | > 10 µM | CC(=O)N(c1ccc(F)c(C(=O)c2cn(C(C)=O)c3ncc(-c4ccc5c(cnn5C(C)=O)c4)cc23)c1F)S(=O)(=O)c1cc(F)ccc1F [P-0006, N-Acetyl-N-{3-[1-acetyl-5-(1-acetyl-1H-indazol-5-yl)-1H-pyrrolo[2,3-b]pyridine-3-carbonyl]-2,4-difluoro-phenyl}-2,5-difluoro-benzenesulfonamide]
< 0.1 µM | > 10 µM | < 0.1 µM | 5 to 10 µM |  | > 10 µM | O=C(c1c(F)ccc(NS(=O)(=O)c2cc(F)ccc2F)c1F)c1c[nH]c2ncc(-c3ccc4[nH]ncc4c3)cc12 [P-0002, N-{2,4-Difluoro-3-[5-(1H-indazol-5-yl)-1H-pyrrolo[2,3-b]pyridine-3-carbonyl]-phenyl}-2,5-difluoro-benzenesulfonamide]
< 0.1 µM | > 10 µM | < 0.1 µM | < 5 µM | > 10 µM | > 10 µM | CC(=O)n1ncc2cc(-c3cnc4[nH]cc(C(=O)c5c(F)ccc(NS(=O)(=O)c6cc(F)ccc6F)c5F)c4c3)ccc21 [P-0005, N-{3-[5-(1-Acetyl-1H-indazol-5-yl)-1H-pyrrolo[2,3-b]pyridine-3-carbonyl]-2,4-difluoro-phenyl}-2,5-difluoro-benzenesulfonamide]
< 0.1 µM | > 10 µM | < 0.1 µM | < 5 µM | > 10 µM | > 10 µM | CC(=O)n1cc(C(=O)c2c(F)ccc(NS(=O)(=O)c3cc(F)ccc3F)c2F)c2cc(-c3ccc4c(cnn4C(C)=O)c3)cnc21 [P-0004, N-{3-[1-Acetyl-5-(1-acetyl-1H-indazol-5-yl)-1H-pyrrolo[2,3-b]pyridine-3-carbonyl]-2,4-difluoro-phenyl}-2,5-difluoro-benzenesulfonamide]
< 0.1 µM | < 5 µM | < 0.1 µM | > 10 µM | > 10 µM | > 10 µM | CCCS(=O)(=O)Nc1ccc(F)c(C(=O)c2c[nH]c3ncc(-c4ccc5cn(C)nc5c4)cc23)c1F [P-0011, Propane-1-sulfonic acid {2,4-difluoro-3-[5-(2-methyl-2H-indazol-6-yl)-1H-pyrrolo[2,3-b]pyridine-3-carbonyl]-phenyl}-amide]
